{"source": "patent US6452005B1", "about": "“JAK-3 inhibitors for treating allergic disorders” (Parker Hughes Institute, priority 1999, dated 2002)", "key": {"human JAK3 [1]": {"biological_target": "T1, human JAK3 (Homo sapiens, UniProt P52333)", "T1 construct": "KL-2 EBV-transformed human lymphoblastoid B cells (native JAK3 kinase assays); endogenous in cells; host or cells: KL-2 EBV-transformed human lymphoblastoid B cell line", "T1 sequence (P52333 1-1124)": "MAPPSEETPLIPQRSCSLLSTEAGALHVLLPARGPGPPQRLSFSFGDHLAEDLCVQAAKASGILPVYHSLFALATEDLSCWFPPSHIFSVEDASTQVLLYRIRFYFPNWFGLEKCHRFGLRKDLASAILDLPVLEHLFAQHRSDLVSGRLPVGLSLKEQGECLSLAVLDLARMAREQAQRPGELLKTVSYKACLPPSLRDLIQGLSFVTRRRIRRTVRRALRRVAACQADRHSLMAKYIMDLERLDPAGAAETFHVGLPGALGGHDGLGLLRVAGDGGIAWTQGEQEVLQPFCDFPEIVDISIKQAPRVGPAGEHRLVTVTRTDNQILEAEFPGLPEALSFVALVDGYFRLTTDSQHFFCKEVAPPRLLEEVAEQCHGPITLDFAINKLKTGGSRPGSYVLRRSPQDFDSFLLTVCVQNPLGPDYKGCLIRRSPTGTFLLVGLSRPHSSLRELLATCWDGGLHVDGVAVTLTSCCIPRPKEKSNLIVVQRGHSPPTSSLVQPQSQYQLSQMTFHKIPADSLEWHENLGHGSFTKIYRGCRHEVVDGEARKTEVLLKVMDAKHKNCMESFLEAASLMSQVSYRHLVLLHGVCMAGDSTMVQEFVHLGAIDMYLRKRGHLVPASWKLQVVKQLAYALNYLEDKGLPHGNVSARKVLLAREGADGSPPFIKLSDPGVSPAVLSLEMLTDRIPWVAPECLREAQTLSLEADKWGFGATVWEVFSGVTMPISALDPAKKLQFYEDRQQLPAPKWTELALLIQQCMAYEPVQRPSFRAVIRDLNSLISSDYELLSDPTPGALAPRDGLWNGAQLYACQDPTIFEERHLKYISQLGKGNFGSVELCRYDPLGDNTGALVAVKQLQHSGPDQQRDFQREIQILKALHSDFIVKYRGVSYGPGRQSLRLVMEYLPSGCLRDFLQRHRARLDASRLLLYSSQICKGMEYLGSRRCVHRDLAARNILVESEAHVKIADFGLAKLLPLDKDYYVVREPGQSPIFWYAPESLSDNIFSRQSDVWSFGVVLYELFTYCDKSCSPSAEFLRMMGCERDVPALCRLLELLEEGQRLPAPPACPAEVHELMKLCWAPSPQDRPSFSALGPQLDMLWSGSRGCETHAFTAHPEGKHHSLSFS", "test": "JAK3 kinase inhibition (Table 1 IC50, immune complex kinase assay)", "assay_type": "biochemical", "conditions": "Table 1; measured inhibition values for JAK3 kinase", "method": "Immune Complex Kinase Assays.\n(§1) KL-2 EBV-transformed human lymphoblastoid B cells (native JAK3 kinase assays) or insect ovary cells (recombinant JAK3 kinase assays) were lysed with NP-40 lysis buffer (50 mM Tris, pH 8, 150 mM NaCl, 5 mM EDTA, 1% NP-40, 100 μM sodium orthovanadate, 100 μM sodium molybdate, 8 μg/ml aprotinin, 5 μg/ml leupeptin, and 500 μM PMSF) and centrifuged 10 minutes at 13000×g to remove insoluble material. Samples were immunoprecipitated with antisera prepared against JAK3. The antisera were diluted and immune complexes collected by incubation with 15 μl protein A Sepharose. After 4 washes with NP-40 lysis buffer, the protein A Sepharose beads were washed once in kinase buffer (20 mM MOPS, pH 7.0, 10 mM MgCl2) and resuspended in the same buffer. Reactions were initiated by the addition of 25 μCi γ[^32P] ATP (5000 Ci/mMole) and unlabeled ATP to a final concentration of 5 μM. Reactions were terminated by boiling for 4 min in SDS sample buffer. Samples were run on 9.5% SDS polyacrylamide gels and labeled proteins will be detected by autoradiography. Following electrophoresis, kinase gels were dried onto Whatman 3M filter paper and subjected to phosphoimaging on a Molecular Imager (Bio-Rad, Hercules, Calif.) as well as autoradiography on film. For each drug concentration, a kinase activity index (KA) was determined by comparing the kinase activity in phosphorimager units (PIU) to that of the baseline sample. In some experiments, cold kinase assays were performed, as described (Uckun et. al., 1998, Clin. Cancer Res., 4:901-912)."}, "human JAK3 [2]": {"biological_target": "T1, human JAK3", "test": "Immune complex kinase assay, JAK3 immunoprecipitated from KL2 EBV-transformed lymphoblastoid B cell line", "assay_type": "biochemical", "conditions": "JAK3 immunoprecipitated from KL2 cells", "method": "as §1, with “Following electrophoresis, kinase gels were dried onto Whatman 3M filter paper and subjected to phosphoimaging on a Molecular Imager (Bio-Rad, Hercules, Calif.) as well as autoradiography on film.” left out, “In some experiments, cold kinase assays were performed, as described (Uckun et. al., 1998, Clin. Cancer Res., 4:901-912).” left out"}, "BALB/c mice": {"tested_on": "BALB/c mice", "test": "Toxicity studies in mice", "assay_type": "in vivo", "method": "Toxicity Studies in Mice. […] Female BALB/c mice were used and monitored daily for lethargy, cleanliness and morbidity. At the time of death, necropsies were performed and the toxic effects of WHI-P131 administration were assessed. For histopathologic studies, tissues were fixed in 10% neutral buffered formalin, dehydrated, and embedded in paraffin by routine methods. Glass slides with affixed 6 micron tissue sections were prepared and stained with Hemotoxylin and Eosin (H&E). Female BALB/c mice were administered an i.p. bolus injection of WHI-P131 in 0.2 ml PBS supplemented with 10% DMSO, or 0.2 ml PBS supplemented with 10% DMSO alone (control mice). No sedation or anesthesia was used throughout the treatment period. Mice were monitored daily for mortality for determination of the day 30 LD50 values. Mice surviving until the end of the 30 days monitoring were sacrificed and the tissues were immediately collected from randomly selected mice, and preserved in 10% neutral buffered formalin. Standard tissues collected for histologic evaluation included: bone, bone marrow, brain, cecum, heart, kidney, large intestine, liver, lung, lymph node, ovary, pancreas, skeletal muscle, skin, small intestine, spleen, stomach, thymus, thyroid gland, urinary bladder, and uterus (as available)."}}}
{"smiles": "COc1cc2ncnc(Nc3ccc(O)cc3)c2cc1OC", "note": "[WHI-P131, 4-(4′-Hydroxylphenyl)-amino-6,7-dimethoxyquinazoline]", "values": [{"measurement": "IC50", "setting": "human JAK3 [1]", "result": 78, "unit": "µM"}, {"measurement": "IC50", "setting": "human JAK3 [2]", "result": 9.1, "unit": "µM"}, {"measurement": "toxicity", "setting": "BALB/c mice; i.p. single bolus 0.5 mg/kg to 250 mg/kg, 30 day observation", "result": "not toxic"}, {"measurement": "maximum tolerated dose (MTD)", "setting": "BALB/c mice; i.p. single bolus, mice", "result": "> 250", "unit": "mg/kg"}, {"measurement": "histopathologic lesions in organs", "setting": "BALB/c mice; mice killed at 30 days", "result": "No histopathologic lesions"}, {"measurement": "hematologic side effects (neutropenia, lymphopenia, anemia)", "setting": "BALB/c mice; tested dose levels, mice", "result": "no hematologic side effects"}]}
